Data: patent US20240425464A1, “Substituted Monohydrazides as Potent Antifungal Agents” (University of Kentucky Research Foundation, priority 2023, published 2024)
Values after ≈ are worked out from the molar mass of the structure shown. Like-named read-outs stand apart in the source and are kept apart here.

Tested on: Candida auris strain AR Bank #384 (K)
Experiment: MIC determination by in vitro antifungal assay
Assay type: cell-based
Description: The antifungal agent amphotericin B (AmB) was purchased from VWR (Radnor PA, USA). AmB was dissolved in DMSO at a final concentration of 5 mg/mL and was stored at −20° C., protected from light. Candida albicans American Type Culture Collection (ATCC) 10231 (strain A), C. albicans ATCC 64124 (B), and C. albicans ATCC MYA-2876 (C) were obtained from Utah State University. C. albicans ATCC 90819 (D), C. albicans ATCC MYA-2310 (E), C. albicans ATCC MYA-1237 (F), C. albicans ATCC MYA-1003 (G), Candida glabrata ATCC 2001 (H), Candida krusei ATCC 6258 (I), Candida parapsilosis ATCC 22019 (J), Cryptococcus neoformans ATCC MYA-895 (M), Aspergillus terreus ATCC MYA-3633 (N), and Aspergillus flavus ATCC MYA-3631 (0) were obtained from the American Type Culture Collection (ATCC; Manassas, VA, USA). Aspergillus nidulans ATCC 38163 (P) was obtained from University of Kentucky. Clinically derived Aspergillus fumigatus NRRL 163 (Q), A. fumigatus NRRL 5109 (R), and A. fumigatus NRRL 6113 (S) were obtained from Northern Regional Research Laboratory (NRRL). Candida auris 384 (K), C. auris 390 (L), and fungal strains 381-400 (including 10 C. auris (AR Bank #381-390), 3 Candida duobushaemulonii (AR Bank #391, AR Bank #392, and AR Bank #394), 2 Candida haemulonii (AR Bank #393 and AR Bank #395), 1 Kodameae ohmeri (AR Bank #396), 1 C. krusei (AR Bank #397), 1 Candida lusitaniae (AR Bank #398), and 2 Saccharomyces cerevisiae strains (AR Bank #399 and AR Bank #400)) were part of a larger fungal library from the AR Bank maintained by the Centers for Disease Control and Prevention (CDC; Atlanta, GA, USA). Filamentous fungi and yeasts were cultivated at 35° C. in RPMI 1640 medium (with L-glutamine, without sodium bicarbonate, Sigma-Aldrich, St. Louis, MO) buffered to a pH of 7.0 with 0.165 M morpholinepropanesulfonic acid (MOPS) buffer (Sigma-Aldrich). For cytotoxicity assays, HepG2 and the mouse macrophage cell line J774A.1 were obtained from University of Kentucky. The human embryonic kidney cell line, HEK-293, was bought from the ATCC. Mammalian cells were grown in Dulbecco's Modified Eagle's Medium (DMEM) (from VWR) with 10% fetal bovine serum (FBS) (from VWR) and 1% Pen/Strep (from ATCC). Cell lines were cultured at 37° C. with 5% CO2 and passaged by trypsinization with 0.05% trypsin: 0.53 mM EDTA (from Sigma-Aldrich).
From the actively growing yeast culture, 100 µL were then transferred to 900 μL of RPMI 1640 medium and re-adjusted to achieve OD600 of 0.12 (˜1×10^6 CFU/mL). The cell suspension was further diluted to achieve 1:100 in RPMI 1640 medium.
Finally, the activity of these monohydrazides was explored against […] non-Candida strains: Cryptococcus neoformans ATCC MYA-895 (M), Aspergillus terreus ATCC MYA-3633 (N), Aspergillus flavus ATCC MYA-3631 (O), Aspergillus nidulans ATCC 38163 (P), Aspergillus fumigatus NRRL 163 (Q), A. fumigatus NRRL 5109 (R), and A. fumigatus NRRL 6113 (S) (Tables 1A and 1B). The double dilution method was used with concentrations ranging from 0.06 to 31.3 j·tg mL^−1 for monohydrazides 1a-9j, and the commercially available positive antifungal control amphotericin B (AmB).

[1] = Candidozyma auris, C. auris AR Bank #384 (K), read-out: MIC
[2] = Candidozyma auris, strain K = C. auris AR Bank # 0384 (Tables 1A/1B), read-out: MIC
[3] = C. auris AR Bank # 384 (K) (Table 2B)
[4] = strain K = C. auris AR Bank # 0384 (Tables 1A/1B)
[5] = Candidozyma auris, C. auris AR Bank # 384 (K) (Table 2B), read-out: MIC

Row | Structure (SMILES) | MIC [2] [µg/mL] | MIC [4] [μg/mL^−1] | further results
1 | O=C(NNc1ccc(F)cc1F)c1cnccn1 [Compound 9g] | 3.9 (≈ 15.6 µM) | – | MIC [1]: 3.9 µg/mL (≈ 15.6 µM)
2 | O=C(NNc1ccc(F)cc1)c1ccc(F)cn1 [Compound 3d] | – | 3.9 | MIC [3]: 0.98 μg/mL^−1
3 | O=C(NNc1cccc(F)c1)c1cccc(Br)n1 [Compound 6a] | – | 3.9 | –
4 | O=C(NNc1ccc(F)cc1F)c1cccc(F)n1 [Compound 5g] | 7.8 (≈ 29.2 µM) | – | MIC [5]: 3.9 µg/mL (≈ 14.6 µM)
5 | O=C(NNc1ccc(F)cc1)c1ccccn1 [Compound 2d] | 3.9 (≈ 16.9 µM) | – | MIC [1]: 3.9 µg/mL (≈ 16.9 µM)
6 | COc1ccc(NNC(=O)c2ccc(F)cn2)cc1 [Compound 3f] | – | 3.9 | –
7 | O=C(NNc1ccc(Cl)cc1)c1ncc(F)cc1F [Compound 7e] | – | 3.9 | MIC [3]: 7.9 μg/mL^−1
8 | O=C(NNc1ccc(Cl)cc1)c1cnccn1 [Compound 9e] | – | 1.95 | MIC (C. auris AR Bank #384 (K)): 1.95 μg/mL^−1
9 | COc1ccc(NNC(=O)c2cccc(Br)n2)cc1 [Compound 6f] | 1.95 (≈ 6.05 µM) | – | –
10 | O=C(NNc1ccc(F)cc1F)c1nc(F)ccc1F [Compound 8g] | 3.9 (≈ 13.7 µM) | – | MIC [5]: 0.98 µg/mL (≈ 3.44 µM)
11 | O=C(NNc1ccc(F)cc1)c1ccc(Br)cn1 [Compound 4d] | 7.8 (≈ 25.2 µM) | – | MIC [5]: 1.95 µg/mL (≈ 6.29 µM)
12 | COc1cccc(NNC(=O)c2ccc(F)cc2F)c1 [Compound 1c] | 1.95 (≈ 7.01 µM) | – | –
13 | O=C(NNc1cccc(F)c1)c1nc(F)ccc1F [Compound 8a] | – | 1.95 | –
14 | COc1cccc(NNC(=O)c2ccc(Br)cn2)c1 [Compound 4c] | 1.95 (≈ 6.05 µM) | – | –
15 | O=C(NNc1cccc(Cl)c1)c1ccc(F)cc1F [Compound 1b] | 13.6 (≈ 48.1 µM) | – | MIC [5]: 7.8 µg/mL (≈ 27.6 µM)
16 | O=C(NNc1cccc(F)c1)c1ccc(F)cn1 [Compound 3a] | – | 1.95 | –
17 | O=C(NNc1ccc(F)cc1F)c1ccc(F)cc1F [Compound 1g] | 15.6 (≈ 54.9 µM) | – | –
18 | O=C(NNc1cc(F)ccc1F)c1cnccn1 [Compound 9h] | 0.49 (≈ 1.96 µM) | – | –
19 | COc1cccc(NNC(=O)c2ncc(F)cc2F)c1 [Compound 7c] | 7.8 (≈ 27.9 µM) | – | –
20 | O=C(NNc1ccc(Cl)cc1)c1ccccn1 [Compound 2e] | – | 1.95 | MIC (C. auris AR Bank #384 (K)): 1.95 μg/mL^−1
21 | O=C(NNc1cccc(Cl)c1)c1ccccn1 [Compound 2b] | – | 0.98 | MIC (C. auris AR Bank #384 (K)): 0.98 μg/mL^−1

Row | Structure (SMILES) | MIC [2] [µg/mL] | MIC [4] [μg/mL^−1] | further results
22 | O=C(NNc1ccc(F)cc1)c1cccc(Br)n1 [Compound 6d] | 3.9 (≈ 12.6 µM) | – | MIC [5]: 0.98 µg/mL (≈ 3.16 µM)
23 | O=C(NNc1ccc(F)cc1)c1cccc(F)n1 [Compound 5d] | 1.95 (≈ 7.82 µM) | – | MIC [5]: 0.49 µg/mL (≈ 1.97 µM)
24 | O=C(NNc1cccc(F)c1)c1ccccn1 [Compound 2a] | – | 1.95 | MIC (C. auris AR Bank #384 (K)): 1.95 μg/mL^−1
25 | O=C(NNc1ccc(F)cc1F)c1ncc(F)cc1F [Compound 7g] | 7.8 (≈ 27.3 µM) | – | MIC [5]: 0.98 µg/mL (≈ 3.44 µM)
26 | O=C(NNc1ccc(F)cc1F)c1ccc(F)cn1 [Compound 3g] | 7.8 (≈ 29.2 µM) | – | MIC [5]: 0.98 µg/mL (≈ 3.67 µM)
27 | O=C(NNc1cc(F)cc(F)c1)c1ccccn1 [Compound 2i] | 0.24 (≈ 0.963 µM) | – | MIC [1]: 0.98 µg/mL (≈ 3.93 µM)
28 | O=C(NNc1cc(Cl)cc(Cl)c1)c1ccc(F)cc1F [Compound 1j] | > 31.3 | – | MIC [5]: 15.6 µg/mL (≈ 49.2 µM)
29 | COc1ccc(NNC(=O)c2ncc(F)cc2F)cc1 [Compound 7f] | 3.9 (≈ 14 µM) | – | MIC [5]: 0.98 µg/mL (≈ 3.51 µM)
30 | O=C(NNc1ccc(F)cc1)c1ccc(F)cc1F [Compound 1d] | 1.95 (≈ 7.32 µM) | – | –
31 | O=C(NNc1ccc(F)cc1)c1ncc(F)cc1F [Compound 7d] | 1.95 (≈ 7.3 µM) | – | MIC [5]: 0.49 µg/mL (≈ 1.83 µM)
32 | O=C(NNc1cc(Cl)cc(Cl)c1)c1cnccn1 [Compound 9j] | 15.6 (≈ 55.1 µM) | – | –
33 | COc1ccc(NNC(=O)c2cnccn2)cc1 [Compound 9f] | 0.49 (≈ 2.01 µM) | – | MIC [1]: 0.98 µg/mL (≈ 4.01 µM)
34 | COc1cccc(NNC(=O)c2ccc(F)cn2)c1 [Compound 3c] | – | 1.95 | MIC [3]: 0.49 μg/mL^−1
35 | O=C(NNc1cccc(F)c1)c1ccc(Br)cn1 [Compound 4a] | – | 1.95 | –
36 | O=C(NNc1cccc(F)c1)c1cccc(F)n1 [Compound 5a] | – | 1.95 | –
37 | O=C(NNc1ccc(F)cc1)c1cnccn1 [Compound 9d] | 0.49 (≈ 2.11 µM) | – | –
38 | COc1cccc(NNC(=O)c2ccccn2)c1 [Compound 2c] | – | 0.98 | MIC (C. auris AR Bank #384 (K)): 0.98 μg/mL^−1
39 | COc1ccc(NNC(=O)c2ccccn2)cc1 [Compound 2f] | 3.9 (≈ 16 µM) | – | MIC [1]: 3.9 µg/mL (≈ 16 µM)
40 | O=C(NNc1ccc(Cl)cc1)c1ccc(F)cn1 [Compound 3e] | – | 7.8 | MIC [3]: 7.8 μg/mL^−1
41 | O=C(NNc1ccc(F)cc1)c1nc(F)ccc1F [Compound 8d] | 1.95 (≈ 7.3 µM) | – | MIC [5]: 0.49 µg/mL (≈ 1.83 µM)
42 | O=C(NNc1cc(Cl)cc(Cl)c1)c1ccccn1 [Compound 2j] | 7.8 (≈ 27.6 µM) | – | MIC [1]: 7.8 µg/mL (≈ 27.6 µM)

Row | Structure (SMILES) | MIC [2] [µg/mL] | MIC [4] [μg/mL^−1] | further results
43 | O=C(NNc1cccc(F)c1)c1cnccn1 [Compound 9a] | – | 0.98 | –
44 | COc1cccc(NNC(=O)c2cnccn2)c1 [Compound 9c] | 1.95 (≈ 7.98 µM) | – | MIC [1]: 1.95 µg/mL (≈ 7.98 µM)
45 | COc1ccc(NNC(=O)c2ccc(F)cc2F)cc1 [Compound 1f] | 1.95 (≈ 7.01 µM) | – | –
46 | O=C(NNc1cc(F)ccc1F)c1ccc(F)cc1F [Compound 1h] | 31.3 (≈ 110 µM) | – | –
47 | O=C(NNc1ccc(Cl)cc1)c1nc(F)ccc1F [Compound 8e] | – | 7.8 | MIC [3]: 7.8 μg/mL^−1
48 | O=C(NNc1cc(F)cc(F)c1)c1ccc(F)cc1F [Compound 1i] | 15.6 (≈ 54.9 µM) | – | –
49 | O=C(NNc1ccc(Cl)cc1)c1cccc(F)n1 [Compound 5e] | – | 3.9 | MIC [3]: 3.9 μg/mL^−1
50 | O=C(NNc1cccc(Cl)c1)c1cnccn1 [Compound 9b] | 1.95 (≈ 7.84 µM) | – | MIC [1]: 0.98 µg/mL (≈ 3.94 µM)
51 | O=C(NNc1ccc(F)cc1F)c1ccccn1 [Compound 2g] | 0.49 (≈ 1.97 µM) | – | MIC [1]: 0.49 µg/mL (≈ 1.97 µM)
52 | O=C(NNc1cc(F)cc(F)c1)c1cnccn1 [Compound 9i] | 0.49 (≈ 1.96 µM) | – | –
53 | COc1cccc(NNC(=O)c2nc(F)ccc2F)c1 [Compound 8c] | 15.6 (≈ 55.9 µM) | – | –
54 | O=C(NNc1ccc(F)cc1F)c1ccc(Br)cn1 [Compound 4g] | 3.9 (≈ 11.9 µM) | – | –
55 | C[C@@H]1[C@H](O)[C@@H](C)/C=C/C=C/C=C/C=C/C=C/C=C/C=C/[C@H](O[C@@H]2O[C@H](C)[C@@H](O)[C@H](N)[C@@H]2O)C[C@@H]2O[C@](O)(C[C@@H](O)C[C@@H](O)[C@H](O)CC[C@@H](O)C[C@@H](O)CC(=O)O[C@H]1C)C[C@H](O)[C@H]2C(=O)O [AmB, amphotericin B, reference compound] | – | 1.95 | MIC (C. auris AR Bank #384 (K)): 1.95 μg/mL^−1; MIC [3]: 1.95 μg/mL^−1
56 | O=C(NNc1cc(F)ccc1F)c1ccccn1 [Compound 2h] | 0.24 (≈ 0.963 µM) | – | MIC [1]: 1.95 µg/mL (≈ 7.82 µM)
57 | O=C(NNc1cccc(F)c1)c1ncc(F)cc1F [Compound 7a] | – | 1.95 | –
58 | O=C(NNc1ccc(Cl)cc1)c1ccc(F)cc1F [Compound 1e] | – | 7.8 | –
59 | O=C(NNc1cccc(F)c1)c1ccc(F)cc1F [Compound 1a] | – | 1.95 | –
60 | COc1ccc(NNC(=O)c2ccc(Br)cn2)cc1 [Compound 4f] | 1.95 (≈ 6.05 µM) | – | –
61 | COc1ccc(NNC(=O)c2cccc(F)n2)cc1 [Compound 5f] | 1.95 (≈ 7.46 µM) | – | –
62 | COc1ccc(NNC(=O)c2nc(F)ccc2F)cc1 [Compound 8f] | 3.9 (≈ 14 µM) | – | MIC [5]: 0.98 µg/mL (≈ 3.51 µM)
